# In ChEMBL document CHEMBL6127105, “Immunosuppressive Breviane Spiroditerpenoids from Penicillium bialowiezense Isolated from a Medicinal Plant” (J Nat Prod, 2024):
# What was measured:
# [1] = Immunosuppressive activity against ConA induced T-cells proliferation; type: functional, cell-based; settings: T-cell
# [2] = Immunosuppressive activity against LPS induced B-cells proliferation; type: functional, cell-based; settings: B-cell
Compound,IC50 [1],IC50 [2]
CC1=C[C@H](O)[C@@H]2[C@@]3(C)CC[C@H](O)C(C)(C)[C@@H]3CC[C@@]2(C)[C@]12Cc1c(c(C)c(C)oc1=O)O2,4.1 µM,4.6 µM
CC1=C[C@H](O)[C@@H]2[C@@]3(C)C=CC(=O)C(C)(C)[C@@H]3CC[C@@]2(C)[C@]12Cc1c(c(C)c(C)oc1=O)O2,4.7 µM,7.5 µM
CC1=C[C@H](O)[C@@H]2[C@@]3(C)[C@H](O)CC(=O)C(C)(C)[C@@H]3CC[C@@]2(C)[C@]12Cc1c(c(C)c(C)oc1=O)O2,12 µM,13 µM
CC1=C[C@H](O)[C@@H]2[C@@]3(C)[C@H](O)[C@@H](O)[C@H](O)C(C)(C)[C@@H]3CC[C@@]2(C)[C@]12Cc1c(c(C)c(C)oc1=O)O2,7.3 µM,6.3 µM
CC1=CC[C@@H]2[C@@]3(C)C=CC(=O)C(C)(C)[C@@H]3CC[C@@]2(C)[C@]12Cc1c(c(C)c(C)oc1=O)O2,4.8 µM,6.7 µM
CC1=CC[C@@H]2[C@@]3(C)CCC(=O)C(C)(C)[C@@H]3CC[C@@]2(C)[C@]12Cc1c(c(C)c(C)oc1=O)O2,17 µM,17 µM
CC1=C[C@H](O)[C@@H]2[C@@]3(C)CCC(=O)C(C)(C)[C@@H]3CC[C@@]2(C)[C@]12Cc1c(c(C)c(C)oc1=O)O2,11 µM,18 µM
